Key:
Test in all cases: Phosphomimetic ProP-PD selection with NGS
DLG1 PDZ2 = target: T1, DLG1 PDZ2 (Homo sapiens, UniProt Q12959); type: binding; details: mean of selections 1-3, bait DLG1 PDZ2
T1 construct: human DLG1 PDZ2 aa 311–407 in a modified pRSET vector 40; made in house; host or cells: E. coli BL21 Gold (DE3)
Procedure: (§1) Phage selections were carried out for four rounds following a protocol by Huang and Sidhu (Huang & Sidhu, 2011) with minor modifications. Non‐specific binding phage was removed by pre‐selections against immobilized GST throughout the selection. The selections against the (pre‐)phosphorylated wild‐type library were performed in 50 mM HEPES (pH 7.4) and 150 mM NaCl (HBS) following the same procedure after pre‐phosphorylation of the library.
(§2) • Immobilize proteins (15 μg in 100 μl PBS) in a 96‐well MaxiSorp microtiter plate (NUNC) overnight at 4°C. • Start a 2YT culture of E. coli Omnimax supplemented with 100 μg/ml tetracycline to retain the F pilus epitope. • Block the wells with 200 μl 0.5% BSA in PBS for 2 h at 4°C. • Precipitate naïve phage library (10^11 cfu per selection) or amplified phage pool from the previous round of selection by adding one‐fifth the volume of PEG/NaCl. • Incubate on ice for 10 min, and pellet precipitated phage by centrifugation at 5,300 g for 15 min. Resuspend the phage pellet in 100 μl PBS per selection. • Add 100 μl of phage solution to the GST‐coated pre‐selection wells and incubate for 1 h. • Transfer the phage solution to the immobilized target proteins and allow it to bind for 2 h at 8°C. • Wash the plate four times with 200 μl cold wash buffer (PBS, 0.05% Tween‐20). • Elute bound phage by incubation with 100 μl log phase (0.6–0.8 OD600) E. coli Omnimax for 30 min at 37°C with shaking (200 RPM). • Add 10^12 cfu/ml M13K07 helper phage for hyperinfection of the bacteria and incubate as above for 45 min. • Transfer the bacterial culture to 10 ml 2YT supplemented with 50 μg/ml carbenicillin, 25 μg/ml kanamycin, and 300 μM IPTG and incubate overnight at 37°C while shaking. • Perform phage pool ELISA to monitor the progress of the selection as described previously (Huang & Sidhu, 2011).
(§3) The naïve library and the enriched phage pools of the third day of selection were amplified and barcoded by PCR and analyzed by NGS as described elsewhere (McLaughlin & Sidhu, 2013; Ivarsson et al, 2014). The reads were demultiplexed using the barcode sequences and filtered by discarding sequences with a Phred quality score under 30. Sequences were mapped to the original library using Bowtie (Langmead et al, 2009) with two mismatches between reads and library sequence. Nucleotide mutations leading to amino acid substitutions were subsequently removed. Cutoff values of NGS counts were assigned for each pool. PWMs were generated based on the remaining peptides (aligned on the C‐termini) using WebLogo (Crooks et al, 2004).
(§4) However, there was no significant correlation of the actual read counts (selection “strength”) and the initial representation in the library, reflecting the strong selection during phage display (wt+mimetic: P‐value: 0.49, ρ = −0.08, mimetic only: P‐value: 0.069, ρ = −0.2, wt only: P‐value: 0.12, ρ = 0.17). Consequently, the amount of reads for each binder after phage display is not a function of the amount of input reads in the naïve library and no modeling based on the input library frequencies to score the interactions is necessary. To allow for comparison between replicate selections, we used the fraction of NGS reads within a certain set, instead of the absolute number of NGS reads, as the absolute numbers differ between different NGS batches.

Scribble PDZ1 = target: T2, Scribble PDZ1 (Homo sapiens, UniProt Q14160); type: binding; details: bait Scribble PDZ1; mean of selections 1-3
T2 construct: human Scribble PDZ1 aa 719–829 in; made in house; host or cells: E. coli BL21 Gold (DE3)
Procedure: as §1, §2, §3, §4

Scribble PDZ3 = type: binding, human; details: mean over selections 1-3; bait Scribble PDZ3
Procedure: as §1, §2, §3, §4

DLG1 PDZ1 = type: binding, human; details: mean of selections 1-3, bait DLG1 PDZ1; for Mean fraction #NGS counts mimetic peptide / total count selection: phosphomimetic peptide; for Mean fraction #NGS counts wt peptide / total counts selection: wild type peptide
Procedure: as §1, §2, §3, §4

Scribble PDZ2 = type: binding, human; details: bait Scribble PDZ2
Procedure: as §1, §2, §3, §4

[1] = mean of selections 1 and 2 (selection 3 empty)

T1 sequence (Q12959 311-407): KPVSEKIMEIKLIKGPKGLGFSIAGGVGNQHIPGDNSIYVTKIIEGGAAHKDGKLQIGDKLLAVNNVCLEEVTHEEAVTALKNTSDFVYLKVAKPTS
T2 sequence (Q14160 719-829): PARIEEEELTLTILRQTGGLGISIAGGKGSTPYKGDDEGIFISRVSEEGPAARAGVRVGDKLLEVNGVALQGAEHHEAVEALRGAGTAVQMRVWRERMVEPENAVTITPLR

Sequence: ARVSKEEPL
- Mean fraction #NGS counts mimetic peptide / total count selection (DLG1 PDZ2): 0
- Mean fraction #NGS counts mimetic peptide / total count selection (Scribble PDZ1): 1.46e-5
- Mean fraction #NGS counts mimetic peptide / total count selection (Scribble PDZ3): 0

Sequence: ARVSKETPL
- Mean fraction #NGS counts wt peptide / total counts selection (DLG1 PDZ2): 0.002959
- Mean fraction #NGS counts wt peptide / total counts selection (Scribble PDZ1): 0.07558
- Mean fraction #NGS counts wt peptide / total counts selection (Scribble PDZ3): 0.1287

Sequence: ASEPGGTVV
- Mean fraction #NGS counts mimetic peptide / total count selection (DLG1 PDZ1): 0

Sequence: ASSPGGTVV
- Mean fraction #NGS counts wt peptide / total counts selection (DLG1 PDZ1): 2.813e-5

Sequence: EARLWETSI
- Mean fraction #NGS counts mimetic peptide / total count selection (Scribble PDZ1): 0.0002246
- Mean fraction #NGS counts mimetic peptide / total count selection (DLG1 PDZ1): 3.0718e-6
- Mean fraction #NGS counts mimetic peptide / total count selection (Scribble PDZ3): 0.01196

Sequence: EEREVTTYL
- Mean fraction #NGS counts mimetic peptide / total count selection (Scribble PDZ1): 0.0003719
- Mean fraction #NGS counts mimetic peptide / total count selection (DLG1 PDZ1): 3.309e-5
- Mean fraction #NGS counts mimetic peptide / total count selection (Scribble PDZ3): 0.000214

Sequence: EGSYLVTSV
- Mean fraction #NGS counts mimetic peptide / total count selection (DLG1 PDZ2; phosphomimetic peptide): 0.0002179
- Mean fraction #NGS counts mimetic peptide / total count selection (Scribble PDZ1): 1.46e-5

Sequence: ERLRVEEDV
- Mean fraction #NGS counts mimetic peptide / total count selection (DLG1 PDZ2): 0
- Mean fraction #NGS counts mimetic peptide / total count selection (DLG1 PDZ1): 0
- Mean fraction #NGS counts mimetic peptide / total count selection (Scribble PDZ3): 0

Sequence: ERLRVETDV
- Mean fraction #NGS counts wt peptide / total counts selection (DLG1 PDZ2): 0.00089
- Mean fraction #NGS counts wt peptide / total counts selection (DLG1 PDZ1): 0.0001761
- Mean fraction #NGS counts wt peptide / total counts selection (Scribble PDZ3): 0.0002834

Sequence: ESGSQHTNV
- Mean fraction #NGS counts mimetic peptide / total count selection (DLG1 PDZ1): 0

Sequence: ESREVTTYL
- Mean fraction #NGS counts wt peptide / total counts selection (Scribble PDZ1): 2.8202e-5
- Mean fraction #NGS counts wt peptide / total counts selection (DLG1 PDZ1): 0
- Mean fraction #NGS counts wt peptide / total counts selection (Scribble PDZ3): 5.004e-5

Sequence: GELALLTKL
- Mean fraction #NGS counts mimetic peptide / total count selection (Scribble PDZ1): 0.0001134
- Mean fraction #NGS counts mimetic peptide / total count selection (DLG1 PDZ1): 1.514e-5

Sequence: GSLALLTKL
- Mean fraction #NGS counts wt peptide / total counts selection (Scribble PDZ1): 0
- Mean fraction #NGS counts wt peptide / total counts selection (DLG1 PDZ1): 0

Sequence: KLESIESDV
- Mean fraction #NGS counts mimetic peptide / total count selection (DLG1 PDZ1): 0

Sequence: KLSSIESDV
- Mean fraction #NGS counts wt peptide / total counts selection (DLG1 PDZ2): 0.003213
- Mean fraction #NGS counts wt peptide / total counts selection (DLG1 PDZ1): 2.936e-5
- Mean fraction #NGS counts wt peptide / total counts selection (Scribble PDZ3): 0.0003618

Sequence: KPERISTVV
- Mean fraction #NGS counts mimetic peptide / total count selection (DLG1 PDZ2; phosphomimetic peptide): 0.001492
- Mean fraction #NGS counts mimetic peptide / total count selection (DLG1 PDZ1): 0.0005714

Sequence: KPSRISTVV
- Mean fraction #NGS counts wt peptide / total counts selection (DLG1 PDZ2; wild type peptide): 2.5129e-5
- Mean fraction #NGS counts wt peptide / total counts selection (DLG1 PDZ1): 0

Sequence: KYDKELEPV
- Mean fraction #NGS counts mimetic peptide / total count selection (DLG1 PDZ1): 0.003147

Sequence: KYDKELTPV
- Mean fraction #NGS counts wt peptide / total counts selection (DLG1 PDZ1): 1.185e-6

Sequence: MRLQSETEV
- Mean fraction #NGS counts mimetic peptide / total count selection (DLG1 PDZ2): 0.0002982
- Mean fraction #NGS counts mimetic peptide / total count selection (DLG1 PDZ1): 3.405e-5

Sequence: MRLQSETSV
- Mean fraction #NGS counts wt peptide / total counts selection (DLG1 PDZ2): 5.408e-5
- Mean fraction #NGS counts wt peptide / total counts selection (DLG1 PDZ1): 1.185e-6

Sequence: QEELKLSNL
- Mean fraction #NGS counts mimetic peptide / total count selection (Scribble PDZ2; [1]): 0.0005697

Sequence: QSELKLSNL
- Mean fraction #NGS counts wt peptide / total counts selection (Scribble PDZ2; [1]): 0.0009495

Sequence: RGLESATEL
- Mean fraction #NGS counts mimetic peptide / total count selection (Scribble PDZ2; mean over selections): 0.001519

Sequence: RGLESATSL
- Mean fraction #NGS counts wt peptide / total counts selection (Scribble PDZ2; mean over selections): 0

Sequence: RIESLESEV
- Mean fraction #NGS counts mimetic peptide / total count selection (DLG1 PDZ2; phosphomimetic peptide): 0.000103
- Mean fraction #NGS counts mimetic peptide / total count selection (DLG1 PDZ1): 1.703e-5

Sequence: RISSLESEV
- Mean fraction #NGS counts wt peptide / total counts selection (DLG1 PDZ2; wild type peptide): 0.00571
- Mean fraction #NGS counts wt peptide / total counts selection (DLG1 PDZ1): 0.0001168

Sequence: RREEYSTTV
- Mean fraction #NGS counts mimetic peptide / total count selection (DLG1 PDZ2): 1.723e-5
- Mean fraction #NGS counts mimetic peptide / total count selection (DLG1 PDZ1): 1.94e-5

Sequence: RRESYSTTV
- Mean fraction #NGS counts wt peptide / total counts selection (DLG1 PDZ2): 0.0006987
- Mean fraction #NGS counts wt peptide / total counts selection (DLG1 PDZ1): 0.005493

— PMC6100724, “Proteome‐wide analysis of phospho‐regulated PDZ domain interactions” (Molecular Systems Biology, 2018)
